# Test results: US5149859A, “Naphthalene derivatives” (Teijin Limited, priority 1989, dated 1992)
# Read-outs that look alike come from different tables or passages of the source.
# Columns and labels:
# Format in all cases: cell-based
# lipoxygenase [1] = test: Activity of inhibiting lipoxygenase production in human whole blood (Table 1-1); conditions: A23187 25 μM, 15 min
# Description: Evaluation of activity of inhibiting lipoxygenase production in human whole blood Into 2 ml of a heparin-treated vein blood of a healthy person without administration of a drug was added 2 μl of the DMSO solution containing the test sample of the sulfide ketone derivative listed in Table 1-1 as the drug to be tested (final 10^-5 M). After treatment at 37° C. for 5 minutes, 10 μl of a DMSO solution of A23187 was added (final 25 μM) to carry out the treatment at 37° C. for 15 minutes, followed by ice-cooling. As the internal standard substance for quantitation, 10 μl of a DMSO solution of 100 ng of 15-HETE was added, and then 0.8 ml of acetonitrile was added and the precipitates formed were removed by centrifugation. LTB4, 5-HETE, 12-HETE in the supernatant were separated and quantitated. The results are shown in Table 1-1 as the lipoxygenase production inhibitory ratio. | *For only this compound, the results are shown in "× 10^-4
# lipoxygenase [2] = target: T1, lipoxygenase (Homo sapiens, UniProt P09917); test: Activity of inhibiting lipoxygenase production in human whole blood (Table 3-1); conditions: 0.25 h, final 10^-5 M, A23187 25 μM, 37° C.
# T1 construct: heparin-treated vein blood of a healthy person without administration of a drug; from tissue; host or cells: human heparinised venous whole blood
# T1 sequence (P09917 1-674): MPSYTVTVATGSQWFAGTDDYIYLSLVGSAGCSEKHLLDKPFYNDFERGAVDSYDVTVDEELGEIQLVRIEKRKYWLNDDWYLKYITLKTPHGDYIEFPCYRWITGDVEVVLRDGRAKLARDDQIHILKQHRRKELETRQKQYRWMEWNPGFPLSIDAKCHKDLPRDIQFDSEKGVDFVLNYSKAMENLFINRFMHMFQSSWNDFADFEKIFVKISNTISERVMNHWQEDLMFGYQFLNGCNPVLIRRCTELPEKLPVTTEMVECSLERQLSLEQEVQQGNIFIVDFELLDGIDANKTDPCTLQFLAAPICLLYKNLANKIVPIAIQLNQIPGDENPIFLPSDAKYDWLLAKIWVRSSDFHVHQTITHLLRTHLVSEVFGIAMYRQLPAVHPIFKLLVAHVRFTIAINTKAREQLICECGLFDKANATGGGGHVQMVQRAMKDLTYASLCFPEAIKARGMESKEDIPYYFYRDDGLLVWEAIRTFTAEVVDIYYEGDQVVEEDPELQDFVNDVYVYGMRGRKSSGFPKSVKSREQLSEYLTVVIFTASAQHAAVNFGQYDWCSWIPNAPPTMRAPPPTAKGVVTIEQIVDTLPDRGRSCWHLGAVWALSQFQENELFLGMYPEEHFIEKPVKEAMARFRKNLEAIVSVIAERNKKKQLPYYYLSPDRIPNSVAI
# Description: Evaluation of activity of inhibiting lipoxygenase production in human whole blood
# Into 1 ml of a heparin-treated vein blood of a healthy person without administration of a drug was added 1 μl of the DMSO solution of each compound listed in Table 3-1 (final 10^-5 M). After treatment at 37° C. for 5 minutes, 5 μl of a DMSO solution of calcium ionophone (A23187, 25 μM) was added to carry out the treatment at 37° C. for 15 minutes, followed by ice-cooling. As the internal standard substance for quantitation, 10 μl of a DMSO solution of 100 ng of 15-HETE was added, then 0.8 ml of acetonitrile was added, and the precipitates formed were removed by centrifugation. LTB4, 5-HETE in the supernatant were separated and quantitated, and the results are shown as the production inhibitory ratio of LTB4, etc. in Table 3-1.
# lipoxygenase [3] = test: Activity of inhibiting lipoxygenase production in human whole blood (Table 2-1); conditions: final 10^-4 M, 37° C., 15 min, 100 µM; for Inhibitory ratio (%) 12-HETE: A23187 25 μM; for Inhibitory ratio (%) 5-HETE / Inhibitory ratio (%) LTB4: A23187 25 μm
# Description: Evaluation of activity of inhibiting lipoxycenase production in human whole blood Into 2 ml of a heparin-treated vein blood of a healthy person without administration of a drug was added 2 μl of the DMSO solution of each compound listed in Table 2-1 (final 10^-4 M). After treatment at 37° C. for 5 minutes, 10 μl of a DMSO solution of A23187 was added (final 25 μm) to carry out the treatment at 37° C. for 15 minutes, followed by ice-cooling. As the internal standard substance for quantitation, 10 μl of a DMSO solution of 100 ng of 15-HETE was added, and then 0.8 ml of acetonitrile was added and the precipitates formed were removed by centrifugation. LTB4, 5-HETE, 12-HETE in the supernatant were separated and quantitated. The results are shown in Table 2-1 as a production inhibitory ratio of LTB4.
# lipoxygenase [4] = target: T2, lipoxygenase (Rattus norvegicus, UniProt P12527); test: Activity of inhibiting lipoxygenase production in basophilic leukemia (RBL-1) cells (Table 3-2); conditions: 0.25 h, arachidonic acid 50 μg, A23187 25 μM, read-out: Inhibitory ratio (%) LTB4; for inhibition at 1 µM: 10^-6 M; for inhibition at 0.1 µM: 10^-7 M
# T2 construct: A 5×10^6 amount cells of RBL-1 were used; endogenous in cells; host or cells: RBL-1 (basophilic leukemia cells)
# T2 sequence (P12527 1-673): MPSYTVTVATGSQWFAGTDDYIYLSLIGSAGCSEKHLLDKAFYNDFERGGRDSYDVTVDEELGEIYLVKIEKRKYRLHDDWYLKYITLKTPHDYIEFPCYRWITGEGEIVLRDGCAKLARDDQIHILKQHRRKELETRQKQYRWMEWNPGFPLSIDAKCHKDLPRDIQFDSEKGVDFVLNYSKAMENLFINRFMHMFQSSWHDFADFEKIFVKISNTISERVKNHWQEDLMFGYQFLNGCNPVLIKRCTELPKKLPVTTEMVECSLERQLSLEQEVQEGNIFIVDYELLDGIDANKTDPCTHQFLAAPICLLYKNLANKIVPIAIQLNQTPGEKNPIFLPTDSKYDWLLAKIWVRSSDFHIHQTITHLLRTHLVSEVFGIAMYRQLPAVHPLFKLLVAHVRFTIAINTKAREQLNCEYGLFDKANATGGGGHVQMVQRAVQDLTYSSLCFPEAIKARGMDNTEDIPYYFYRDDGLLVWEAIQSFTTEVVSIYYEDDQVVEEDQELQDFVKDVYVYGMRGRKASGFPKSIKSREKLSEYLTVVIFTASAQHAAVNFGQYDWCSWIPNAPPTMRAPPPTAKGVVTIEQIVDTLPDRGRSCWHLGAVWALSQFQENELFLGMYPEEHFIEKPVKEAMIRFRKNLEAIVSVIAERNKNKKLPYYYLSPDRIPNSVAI
# Description: Evaluation of activity of inhibiting lipoxygenase production […] (RBL-1) cells
# A 5×10^6 amount cells of RBL-1 were used and the DMSO solution of each compound listed in Table 3-2 was added thereto so that the final concentration was obtained. After incubation at 37° C. for 5 minutes, 50 μg of arachidonic acid and 25 μM of calcium ionophore (A23187) were added thereto, followed by incubating at 37° C. for 15 minutes. The extraction was carried out after the reaction was completed. The product was determined by reversed phase HPLC.
# [5] = footnote: results shown in × 10^-4 (only this compound)
# [6] = read-out: Inhibitory ratio (%) 5-HETE
# [7] = read-out: Inhibitory ratio (%) LTB4
smiles,measurement,setting,value
COC(=O)CCCC(Sc1ccc2cc(OC)ccc2c1)C(C)=NO (stereo not drawn) [Example 1-4],Inhibitory ratio (%) 5-HETE,lipoxygenase [1]; [5],43%
same,Inhibitory ratio (%) 12-HETE,lipoxygenase [1]; [5],29%
"COC(=O)c1cccc(C(=O)N(O)c2ccc3ccccc3c2O)c1 [Example 3-10, N-hydroxy-N-(1-hydroxy-2-naphthyl)-3-methoxycarbonylbenzamide]",inhibition at 10 µM,lipoxygenase [2]; [6],45%
same,inhibition at 10 µM,lipoxygenase [2]; [7],63%
"COC(=O)CCCC(=NO)C(=O)c1ccc2cc(O)ccc2c1 [Example 2-9, methyl 6-(6-hydroxy-2-naphthyl)-5-hydroxvimino-6-oxohexanoate]",Inhibitory ratio (%) 12-HETE,lipoxygenase [3],27%
same,Inhibitory ratio (%) 5-HETE,lipoxygenase [3],77%
same,Inhibitory ratio (%) LTB4,lipoxygenase [3],66%
"O=C(O)CCCC(=O)N(O)c1ccc2ccccc2c1O [Example 3-3, N-hydroxy-N-(1-hydroxy-2-naphthyl)-4-carboxybutanamide]",inhibition at 1 µM,lipoxygenase [4],35%
same,inhibition at 0.1 µM,lipoxygenase [4],20%
"COC(=O)CCCC(=NO)C(=NO)c1ccc2cc(O)ccc2c1 [Example 2-5, methyl 6-(6-hydroxy-2-naphthyl)-5,6-dihydroxyiminohexanoate]",Inhibitory ratio (%) 12-HETE,lipoxygenase [3],4%
same,Inhibitory ratio (%) 5-HETE,lipoxygenase [3],78%
same,Inhibitory ratio (%) LTB4,lipoxygenase [3],93%
"CON=C(CSc1ccc2cc(OC)ccc2c1)CC(=O)OC [Example 1-6, methyl 4-(6-methoxy-2-naphthylthio)-3-methoxyiminobutanoate]",Inhibitory ratio (%) 5-HETE,"lipoxygenase [1]; final 10^-5 M, 37° C., 10 µM",29%
same,Inhibitory ratio (%) LTB4,"lipoxygenase [1]; final 10^-5 M, 37° C., 10 µM",37%
"COC(=O)COCC(=O)N(O)c1ccc2ccccc2c1O [Example 3-6, N-hydroxy-N-(1-hydroxy-2-naphthyl)-4-methoxycarbonyl-3-oxabutanamide]",inhibition at 10 µM,lipoxygenase [2]; [6],18%
same,inhibition at 10 µM,lipoxygenase [2]; [7],24%
"COC(=O)CCCC(=O)C(=O)c1ccc2cc(O)ccc2c1 [Example 2-4, methyl 6-(6-hyerocy-2-naphthyl)-5,6-dioxohexanoate]",Inhibitory ratio (%) 12-HETE,lipoxygenase [3],3%
same,Inhibitory ratio (%) 5-HETE,lipoxygenase [3],81%
same,Inhibitory ratio (%) LTB4,lipoxygenase [3],78%
"COC(=O)CCCCC(=O)N(O)c1ccc2ccccc2c1O [Example 3-4, N-hydroxy-N-(1-hydroxy-2-naphthyl)-5-methoxycarbonylpentanamide]",inhibition at 10 µM,lipoxygenase [2]; [6],38%
same,inhibition at 10 µM,lipoxygenase [2]; [7],45%
"COC(=O)CCCC(=O)N(O)Cc1ccc2ccccc2c1OC [Example 3-9, N-hydroxy-N-(1-methoxy-2-naphthylmethyl)-4-methoxycarbonylbutanamide]",inhibition at 10 µM,lipoxygenase [2]; [6],27%
same,inhibition at 10 µM,lipoxygenase [2]; [7],40%
"COC(=O)CCCC(=O)N(O)Cc1ccc2ccccc2c1 [Example 3-8, N-hydroxy-N-(2-naphthylmethyl)-4methoxycarbonylbutanamide]",inhibition at 10 µM,lipoxygenase [2]; [6],59%
same,inhibition at 10 µM,lipoxygenase [2]; [7],60%
"COC(=O)CCCC(=O)CSc1ccc2cc(O)ccc2c1 [Example 1-12, methyl 6-(6-hydroxy-2-naphthylthio)-5-oxohexanoate]",Inhibitory ratio (%) 5-HETE,"lipoxygenase [1]; final 10^-5 M, 37° C., 10 µM",6%
same,Inhibitory ratio (%) 12-HETE,"lipoxygenase [1]; final 10^-5 M, 37° C., 10 µM",17%
same,Inhibitory ratio (%) LTB4,"lipoxygenase [1]; final 10^-5 M, 37° C., 10 µM",2%
same,inhibition at 1 µM,lipoxygenase [4],53%
same,inhibition at 0.1 µM,lipoxygenase [4],27%
same,inhibition at 0.01 µM,lipoxygenase [4]; 10^-8 M,28%
"COC(=O)CCC(CSc1ccc2cc(O)ccc2c1)=NO [Example 1-11, methyl 5-(6-hydroxy-2-naphthylthio)-4-hydroxyiminopentanoate]",Inhibitory ratio (%) 5-HETE,"lipoxygenase [1]; final 10^-5 M, 37° C., 10 µM",56%
same,Inhibitory ratio (%) 12-HETE,"lipoxygenase [1]; final 10^-5 M, 37° C., 10 µM",28%
same,Inhibitory ratio (%) LTB4,"lipoxygenase [1]; final 10^-5 M, 37° C., 10 µM",64%
"COC(=O)CCC(=O)N(O)Cc1ccc2ccccc2c1 [Example 3-7, N-hydroxy-N-(2-naphthylmethyl)-3-methoxycarbonylpropionamide]",inhibition at 10 µM,lipoxygenase [2]; [6],59%
same,inhibition at 10 µM,lipoxygenase [2]; [7],71%
"COC(=O)CCCCCC(=O)N(O)c1ccc2ccccc2c1O [Example 3-5, N-hydroxy-N-(1-hydroxy-2-naphthyl)-6-methoxycarbonylhexanamide]",inhibition at 10 µM,lipoxygenase [2]; [6],40%
same,inhibition at 10 µM,lipoxygenase [2]; [7],39%
"COC(=O)CCCC(=O)N(O)c1ccc2ccccc2c1O [Example 3-2, N-hydroxy-N-(1-hydroxy-2-naphthyl)-4-methoxycarbonylbutanamide]",inhibition at 10 µM,lipoxygenase [2]; [6],80%
"O=C(O)CCCC(=O)CSc1ccc2cc(O)ccc2c1 [Example 1-14, 6-(6-hydroxy-2-naphthylthio)-5-oxohexanoic acid]",Inhibitory ratio (%) 5-HETE,"lipoxygenase [1]; final 10^-5 M, 37° C., 10 µM",49%
same,Inhibitory ratio (%) 12-HETE,"lipoxygenase [1]; final 10^-5 M, 37° C., 10 µM",20%
same,Inhibitory ratio (%) LTB4,"lipoxygenase [1]; final 10^-5 M, 37° C., 10 µM",37%
